Laboratory results published in patent US20240254087A1, “SELECTIVE, PARTIAL, AND ARRESTIN-BIASED 5-HT2A AGONISTS WITH UTILITY IN VARIOUS DISORDERS” (Saint Joseph's University, priority 2021, published 2024).
“Also recorded” adds a separate entry of the source. Read-outs that look alike come from different tables or passages of the source.

What was measured:
male C57BL/6J mice = assay: Head-twitch response (HTR) in mice; assay type: in vivo, mouse; settings: for ED50: Mus musculus
Procedure: Male C57BL/6J mice (6-8 weeks old) from Jackson Labs (Bar Harbor, ME, USA) were used for the behavioral experiments. The mice were housed on a reversed light-dark cycle (lights on at 1900 h, off at 0700 h) in an AAAC-approved vivarium at the University of California San Diego. Mice were housed up to four per cage in a climate-controlled room and with food and water provided ad libitum except during behavioral testing. Testing was performed between 1000 and 1800 h (during the dark phase of the light-dark cycle). The studies were conducted in accordance with National Institutes Health (NIH) guidelines and were approved by the University of California San Diego Institutional Animal Care and Use Committee.
The mice were allowed to recover from the magnet implantation surgeries for at least 1 week prior to behavioral testing. HTR experiments were conducted in a well-lit room, and the mice were allowed to habituate to the room for at least 1 h prior to testing. Head twitches was assessed in a 12-cm diameter glass cylinder surrounded by a magnetometer coil. Coil voltage was low-pass filtered (2 kHz), amplified, and digitized (20-kHz sampling rate) using a Powerlab/8SP with LabChart v 7.3.2 (ADInstruments, Colorado Springs, CO, USA). […] HTR counts were analyzed using one-way ANOVAs. Dunnett's test was used for post hoc comparisons.

5-HT2A [1] = target: T1, 5-HT2A (Homo sapiens, UniProt P28223); assay: cell-based; parameters: expressed in transfected cells; host or cells: HEK293T, transient; settings: for Emax: read-out: 5-HT2A Gq Emax (% 5-HT), BRET, mean ± SEM; for EC50: read-out: 5-HT2A Gq dissociation pEC50 (converted)
T1 sequence (P28223 whole entry): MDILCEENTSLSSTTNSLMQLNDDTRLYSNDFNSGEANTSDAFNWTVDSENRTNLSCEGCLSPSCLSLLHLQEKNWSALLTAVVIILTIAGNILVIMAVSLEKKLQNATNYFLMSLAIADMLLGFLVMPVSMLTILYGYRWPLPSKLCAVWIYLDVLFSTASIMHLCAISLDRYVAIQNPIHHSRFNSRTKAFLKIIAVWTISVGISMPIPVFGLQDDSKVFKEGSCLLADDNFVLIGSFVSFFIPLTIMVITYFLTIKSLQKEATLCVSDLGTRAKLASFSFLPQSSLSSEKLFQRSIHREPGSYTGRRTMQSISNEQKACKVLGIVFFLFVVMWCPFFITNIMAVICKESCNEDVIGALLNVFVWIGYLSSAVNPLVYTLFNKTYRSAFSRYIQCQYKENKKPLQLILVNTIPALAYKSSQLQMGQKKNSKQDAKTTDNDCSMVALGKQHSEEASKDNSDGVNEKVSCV
Procedure: (§1) After at least 18-24 hours, transfected cells were plated in poly-lysine coated 96-well white clear bottom cell culture plates in DMEM containing 1% dialyzed FBS at a density of 25-40,000 cells in 200 μL per well and incubated overnight. After approximately 20-24 hours, media was decanted and cells were washed with 60 μL of drug buffer (1×HBSS, 20 mM HEPES, pH 7.4), followed by 60 μL of drug buffer and pre-incubated in a humidified atmosphere at 37° C. before receiving drug stimulation. Drug stimulation was induced by adding 30 μL of a solution of drug (3X) diluted in McCorvy buffer (1×HBSS, 20 mM HEPES, pH 7.4, supplemented with 0.3% BSA fatty acid free, 0.03% ascorbic acid) and plates were incubated at the indicated time and temperature. Fifteen minutes before reading, 10 μL of the RLuc substrate, either coelenterazine h for β-Arrestin recruitment BRET^1 or coelenterazine 400a for Gq dissociation BRET^2 (Prolume/Nanolight, 5 μM final concentration) was addedper well. […] The BRET ratios of fluorescence/luminescence were calculated per well and were plotted as a function of drug concentration using Graphpad Prism 8 (Graphpad Software Inc., San Diego, CA).

5-HT2A [2] = target: T1, 5-HT2A; assay: cell-based; parameters: expressed in transfected cells; host or cells: HEK293T, transient; settings: for EC50: BRET, mean ± SEM, read-out: 5-HT2A β-arrestin recruitment pEC50 (converted); for Emax: read-out: 5-HT2A β-arrestin Emax (% 5-HT), BRET, mean ± SEM
Procedure: as §1

5-HT2B = 5-HT2B (Homo sapiens, UniProt P41595); assay: BRET Gq dissociation, 5-HT2B; assay type: cell-based; parameters: expressed in transfected cells; host or cells: HEK293T, transient
5-HT2B, sequence (P41595 whole entry): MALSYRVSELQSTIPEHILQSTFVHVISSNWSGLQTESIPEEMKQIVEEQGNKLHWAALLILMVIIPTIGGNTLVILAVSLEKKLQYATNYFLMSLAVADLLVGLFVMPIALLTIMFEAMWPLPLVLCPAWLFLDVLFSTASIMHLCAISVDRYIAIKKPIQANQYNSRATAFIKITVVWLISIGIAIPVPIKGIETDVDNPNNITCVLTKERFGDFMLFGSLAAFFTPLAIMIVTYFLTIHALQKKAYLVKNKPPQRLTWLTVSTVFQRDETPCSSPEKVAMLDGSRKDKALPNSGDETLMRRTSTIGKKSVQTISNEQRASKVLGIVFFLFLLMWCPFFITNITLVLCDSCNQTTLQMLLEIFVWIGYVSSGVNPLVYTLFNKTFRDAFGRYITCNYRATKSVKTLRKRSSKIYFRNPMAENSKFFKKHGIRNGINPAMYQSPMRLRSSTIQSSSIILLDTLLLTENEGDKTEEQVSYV
Procedure: After at least 18-24 hours, transfected cells were plated in poly-lysine coated 96-well white clear bottom cell culture plates in DMEM containing 1% dialyzed FBS at a density of 25-40,000 cells in 200 μL per well and incubated overnight. After approximately 20-24 hours, media was decanted and cells were washed with 60 μL of drug buffer (1×HBSS, 20 mM HEPES, pH 7.4), followed by 60 μL of drug buffer and pre-incubated in a humidified atmosphere at 37° C. before receiving drug stimulation. Drug stimulation was induced by adding 30 μL of a solution of drug (3X) diluted in McCorvy buffer (1×HBSS, 20 mM HEPES, pH 7.4, supplemented with 0.3% BSA fatty acid free, 0.03% ascorbic acid) and plates were incubated at the indicated time and temperature. Fifteen minutes before reading, 10 μL of the RLuc substrate, either coelenterazine h for β-Arrestin recruitment BRET^1 or coelenterazine 400a for Gq dissociation BRET^2 (Prolume/Nanolight, 5 μM final concentration) was addedper well. Plates were read for luminescence at 485 nm and fluorescent eYFP emission at 530 nm for BRET^1 and at 400 nm and fluorescent GFP2 emission at 510 nm for BRET2 at 1 second per well using a Mithras LB940 (Berthold). The BRET ratios of fluorescence/luminescence were calculated per well and were plotted as a function of drug concentration using Graphpad Prism 8 (Graphpad Software Inc., San Diego, CA).

5-HT2C = target: T2, 5-HT2C (Homo sapiens, UniProt P28335); assay: BRET Gq dissociation, 5-HT2C; assay type: cell-based; parameters: expressed in transfected cells; host or cells: HEK293T, transient; settings: for Emax: read-out: 5-HT2C Gq Dissociation (BRET) EMAX ± SEM (%5-HT); for EC50: read-out: 5-HT2C Gq Dissociation (BRET) pEC50 ± SEM (converted)
T2 sequence (P28335 33-458): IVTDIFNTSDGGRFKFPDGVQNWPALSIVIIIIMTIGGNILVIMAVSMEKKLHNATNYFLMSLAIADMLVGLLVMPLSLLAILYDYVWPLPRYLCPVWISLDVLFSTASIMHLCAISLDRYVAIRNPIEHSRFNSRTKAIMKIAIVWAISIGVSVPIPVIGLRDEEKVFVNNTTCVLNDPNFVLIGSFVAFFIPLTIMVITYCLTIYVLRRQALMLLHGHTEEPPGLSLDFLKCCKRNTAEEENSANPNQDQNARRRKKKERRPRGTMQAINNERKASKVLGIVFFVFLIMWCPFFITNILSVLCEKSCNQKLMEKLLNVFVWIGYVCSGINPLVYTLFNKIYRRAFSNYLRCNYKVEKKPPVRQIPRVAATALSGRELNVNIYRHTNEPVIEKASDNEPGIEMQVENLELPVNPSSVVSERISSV
Procedure: as §1

[3] = read-out: HTR ED50 mg/kg (95% CI), SC, except DOI and 25D-NBOMe IP

SMILES: COc1cc(OC)c(OC)cc1CCNCc1ccccc1OCc1ccccc1 [(61)]
- Induction of the HTR in mice (in words) (male C57BL/6J mice): lacked a HTR; also recorded: do not induce the HTR
- Max HTR response during a 30-min assessment (maximum counts ÷ baseline response) (male C57BL/6J mice): 1.4-fold increase
- ED50 (male C57BL/6J mice; [3]): > 30 mg/kg
- 5-HT2A Gq dissociation pEC50 (5-HT2A [1]; BRET, mean ± SEM): No activity
- Emax (5-HT2A [1]): < 10%
- EC50 (5-HT2A [2]): 3.31 nM
- Emax (5-HT2A [2]): 72.9 ± 4.2%
- 5-HT2B Gq Dissociation (BRET) EMAX ± SEM (%5-HT) (5-HT2B): No activity
- 5-HT2B Gq Dissociation (BRET) pEC50 ± SEM (5-HT2B): No activity
- 5-HT2C Gq Dissociation (BRET) EMAX ± SEM (%5-HT) (5-HT2C): No Activity
- 5-HT2C Gq Dissociation (BRET) pEC50 ± SEM (5-HT2C): No Activity

SMILES: COc1cc(OC)c(OC)cc1CCNCc1cccc2ccccc12 [(38)]
- Induction of the HTR in mice (in words) (male C57BL/6J mice): failed to induce a HTR
- Max HTR response during a 30-min assessment (maximum counts ÷ baseline response) (male C57BL/6J mice): 1.0-fold increase
- ED50 (male C57BL/6J mice; [3]): > 30 mg/kg
- EC50 (5-HT2A [1]; BRET, mean ± SEM): 5.5 nM
- Emax (5-HT2A [1]): 24.3 ± 1.2%
- EC50 (5-HT2A [2]): 1.62 nM
- Emax (5-HT2A [2]): 74.9 ± 1.9%
- 5-HT2B Gq Dissociation (BRET) EMAX ± SEM (%5-HT) (5-HT2B): No activity
- 5-HT2B Gq Dissociation (BRET) pEC50 ± SEM (5-HT2B): No activity
- Emax (5-HT2C): 64.4 ± 2%
- EC50 (5-HT2C): 12.6 nM

SMILES: COc1cc(CCNCc2ccccc2OC)c(OC)cc1C [25D-NBOMe (26)]
- Max HTR response during a 30-min assessment (maximum counts ÷ baseline response) (male C57BL/6J mice): 15.6-fold increase
- ED50 (male C57BL/6J mice; read-out: HTR ED50 μmol/kg (95% CI), SC, except DOI and 25D-NBOMe IP): 0.64 µmol/kg
- ED50 (male C57BL/6J mice; [3]): 0.23 mg/kg
- 5-HT2A Gq Emax (% 5-HT) (5-HT2A [1]; BRET, mean ± SEM): 93.0 ± 1.3 % 5-HT
- Emax (5-HT2A [1]): ≥ 76%
- Emax (5-HT2A [2]): 126 ± 3.4%

SMILES: COc1cc(OC)c(OC)cc1CCNCc1cccc2cnccc12 [(56)]
- EC50 (5-HT2A [1]; BRET, mean ± SEM): 26.3 nM
- Emax (5-HT2A [1]): 64.1 ± 1.5%
- EC50 (5-HT2A [2]): 17.4 nM
- Emax (5-HT2A [2]): 75.8 ± 8.3%
- 5-HT2B Gq Dissociation (BRET) EMAX ± SEM (%5-HT) (5-HT2B): No activity
- 5-HT2B Gq Dissociation (BRET) pEC50 ± SEM (5-HT2B): No activity
- Emax (5-HT2C): 80.9 ± 3.4%
- EC50 (5-HT2C): 126 nM

SMILES: COc1cc(Br)cc(OC)c1CC(C)NCc1cccc2ccccc12 (stereo not shown) [(33)]
- EC50 (5-HT2A [1]; BRET, mean ± SEM): 31.6 nM
- Emax (5-HT2A [1]): 36.6 ± 1.1%
- EC50 (5-HT2A [2]): 4.9 nM
- Emax (5-HT2A [2]): 98.3 ± 3.3%
- 5-HT2B Gq Dissociation (BRET) EMAX ± SEM (%5-HT) (5-HT2B): No activity
- 5-HT2B Gq Dissociation (BRET) pEC50 ± SEM (5-HT2B): No activity
- Emax (5-HT2C): 80.3 ± 2.4%
- EC50 (5-HT2C): 64.6 nM

SMILES: COc1cc(OC)c(OC)cc1CCNCc1cccc2ncccc12 [(57)]
- Emax (5-HT2A [1]): 34.2 ± 4%
- Emax (5-HT2A [2]): 92 ± 8.9%
- 5-HT2B Gq Dissociation (BRET) EMAX ± SEM (%5-HT) (5-HT2B): No activity
- 5-HT2B Gq Dissociation (BRET) pEC50 ± SEM (5-HT2B): No activity
- Emax (5-HT2C): 77.6 ± 3.2%
- EC50 (5-HT2C): 200 nM

SMILES: COc1cc(OC)c(OC)cc1CCNCc1ccccc1Oc1ccccc1 [(60)]
- Emax (5-HT2A [1]): 63.3 ± 3.5%
- Emax (5-HT2A [2]): 117 ± 14.6%
- 5-HT2B Gq Dissociation (BRET) EMAX ± SEM (%5-HT) (5-HT2B): No activity
- 5-HT2B Gq Dissociation (BRET) pEC50 ± SEM (5-HT2B): No activity
- Emax (5-HT2C): 113 ± 11.6%
- EC50 (5-HT2C): 1700 nM

SMILES: Brc1c2c(c(CCNCc3cccc4ccccc34)c3c1OCC3)OCC2 [(29)]
- EC50 (5-HT2A [1]; BRET, mean ± SEM): 8.71 nM
- Emax (5-HT2A [1]): 31.8 ± 1.4%
- EC50 (5-HT2A [2]): 1.02 nM
- Emax (5-HT2A [2]): 62.5 ± 2.3%
- 5-HT2B Gq Dissociation (BRET) EMAX ± SEM (%5-HT) (5-HT2B): No activity
- 5-HT2B Gq Dissociation (BRET) pEC50 ± SEM (5-HT2B): No activity
- Emax (5-HT2C): 78.1 ± 2.1%
- EC50 (5-HT2C): 4.17 nM
